Test results taken from PubChem BioAssay AID256 (DTP/NCI, 2004).
“And” between values parts separate entries of the source, which are not always exact repeats. Equal entries are not always repeated. Inconclusive results and toxic doses are left out.

Tested on: CD2F1 mice, L1210 leukemia ip, survival T/C
Test: NCI In Vivo Anticancer Drug Screen. Data for tumor model L1210 Leukemia (intraperitoneal) in CD2F1 (CDF1) mice
Conditions: higher = longer survival
Summary of the method: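 Read-out first: treated-group measurement over vehicle-control measurement, expressed as a ratio. Animals bore a transplanted tumor line and were dosed with compound or vehicle.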

[1] = endpoint: mean survival time, dose: 12.5 mg/kg/injection, schedule: Q01DX001 (ip), vehicle: distilled water + Tween-80
[2] = endpoint: mean survival time, dose: 25.0 mg/kg/injection, schedule: Q01DX001 (ip), vehicle: distilled water + Tween-80
[3] = endpoint: mean survival time, dose: 50.0 mg/kg/injection, schedule: Q01DX001 (ip), vehicle: distilled water + Tween-80
[4] = endpoint: mean survival time, dose: 100.0 mg/kg/injection, schedule: Q01DX001 (ip), vehicle: saline with Tween-80
[5] = endpoint: mean survival time, dose: 100.0 mg/kg/injection, schedule: Q01DX009 (ip), vehicle: saline with Tween-80
[6] = endpoint: mean survival time, dose: 200.0 mg/kg/injection, schedule: Q01DX001 (ip), vehicle: saline with Tween-80
[7] = endpoint: mean survival time, dose: 200.0 mg/kg/injection, schedule: Q01DX009 (ip), vehicle: saline with Tween-80
[8] = endpoint: mean survival time, dose: 100.0 mg/kg/injection, schedule: Q04DX003 (ip), vehicle: saline
[9] = endpoint: mean survival time, dose: 200.0 mg/kg/injection, schedule: Q04DX003 (ip), vehicle: saline
[10] = endpoint: mean survival time, dose: 400.0 mg/kg/injection, schedule: Q04DX003 (ip), vehicle: saline

`CN(N=O)C(=O)Nc1ccc(C2CC(=O)N(C)C2=O)cc1` (stereo unspecified) was tested, and the T/C [1] was 113 % of control, the T/C [2] was 101 % of control and 106 % of control and the T/C [3] was 108 % of control and 112 % of control. For the same compound, the T/C (endpoint: mean survival time, dose: 100.0 mg/kg/injection, schedule: Q01DX001 (ip), vehicle: distilled water + Tween-80) was 113 % of control and the T/C (endpoint: mean survival time, dose: 200.0 mg/kg/injection, schedule: Q01DX001 (ip), vehicle: distilled water + Tween-80) was 112 % of control.
In the case of `CC(=O)OCC1OC(Nc2nncs2)C(OC(C)=O)C1OC(C)=O` (stereo unspecified), the T/C (endpoint: median survival time, dose: 12.5 mg/kg/injection, schedule: Q01DX005 (ip), vehicle: distilled water + Tween-80) is reported as 97 % of control, the T/C (endpoint: median survival time, dose: 25.0 mg/kg/injection, schedule: Q01DX005 (ip), vehicle: distilled water + Tween-80) is reported as 96 % of control and the T/C (endpoint: median survival time, dose: 50.0 mg/kg/injection, schedule: Q01DX005 (ip), vehicle: distilled water + Tween-80) is reported as 102 % of control. For the same compound, the T/C (endpoint: median survival time, dose: 100.0 mg/kg/injection, schedule: Q01DX005 (ip), vehicle: distilled water + Tween-80) was 100 % of control and the T/C (endpoint: median survival time, dose: 200.0 mg/kg/injection, schedule: Q01DX005 (ip), vehicle: distilled water + Tween-80) was 100 % of control.
With `CC1(O)CC2CCCC1C2` (stereo unspecified) the T/C (endpoint: mean survival time, dose: 100.0 mg/kg/injection, schedule: Q04DX003 (ip), vehicle: saline with Tween-80) was 93 % of control, the T/C (endpoint: mean survival time, dose: 200.0 mg/kg/injection, schedule: Q04DX003 (ip), vehicle: saline with Tween-80) was 90 % of control and the T/C (endpoint: mean survival time, dose: 400.0 mg/kg/injection, schedule: Q04DX003 (ip), vehicle: saline with Tween-80) was 93 % of control.
With `Cc1cc(Br)c[nH]c1=O` the T/C [4] was 104 % of control, the T/C [5] was 94 % of control and the T/C [6] was 108 % of control. For the same compound, the T/C [7] was 100 % of control and the T/C (endpoint: mean survival time, dose: 400.0 mg/kg/injection, schedule: Q01DX001 (ip), vehicle: saline with Tween-80) was 104 % of control.
For `NC(CO)CO`, the T/C [8] was 98 % of control, the T/C [9] was 95 % of control and the T/C [10] was 98 % of control.
In the case of `Cc1cc(N(CCCl)CCCl)ccc1N=Nc1ccccc1C(=O)O`, the T/C (endpoint: mean survival time, dose: 2.0 mg/kg/injection, schedule: Q01DX009 (ip), vehicle: saline with Tween-80) is reported as 112 % of control, the T/C (endpoint: mean survival time, dose: 4.0 mg/kg/injection, schedule: Q01DX009 (ip), vehicle: saline with Tween-80) is reported as 120 % of control and the T/C (endpoint: mean survival time, dose: 4.0 mg/kg/injection, schedule: Q04DX003 (ip), vehicle: saline with Tween-80) is reported as 102 % of control. The T/C (endpoint: mean survival time, dose: 5.0 mg/kg/injection, schedule: Q01DX009 (ip), vehicle: saline) was 114 % of control and 106 % of control, the T/C (endpoint: mean survival time, dose: 8.0 mg/kg/injection, schedule: Q01DX009 (ip), vehicle: saline with Tween-80) was 120 % of control and the T/C (endpoint: mean survival time, dose: 8.0 mg/kg/injection, schedule: Q04DX003 (ip), vehicle: saline with Tween-80) was 109 % of control. The T/C (endpoint: mean survival time, dose: 10.0 mg/kg/injection, schedule: Q01DX001 (ip), vehicle: saline with Tween-80) was 106 % of control, the T/C (endpoint: mean survival time, dose: 10.0 mg/kg/injection, schedule: Q01DX009 (ip), vehicle: saline with Tween-80) was 114 % of control and the T/C (endpoint: mean survival time, dose: 10.0 mg/kg/injection, schedule: Q01DX009 (ip), vehicle: saline) was 115 % of control and 120 % of control. The T/C (endpoint: mean survival time, dose: 10.0 mg/kg/injection, schedule: Q03DX003 (ip), vehicle: saline) was 113 % of control, the T/C (endpoint: mean survival time, dose: 16.0 mg/kg/injection, schedule: Q04DX003 (ip), vehicle: saline with Tween-80) was 115 % of control and the T/C (endpoint: mean survival time, dose: 20.0 mg/kg/injection, schedule: Q01DX001 (ip), vehicle: saline with Tween-80) was 102 % of control. The T/C (endpoint: mean survival time, dose: 20.0 mg/kg/injection, schedule: Q01DX009 (ip), vehicle: saline with Tween-80) was 109 % of control, the T/C (endpoint: mean survival time, dose: 20.0 mg/kg/injection, schedule: Q01DX009 (ip), vehicle: saline) was 122 % of control and the T/C (endpoint: mean survival time, dose: 32.0 mg/kg/injection, schedule: Q01DX009 (ip), vehicle: saline with Tween-80) was 97 % of control. For the same compound, the T/C (endpoint: mean survival time, dose: 40.0 mg/kg/injection, schedule: Q01DX001 (ip), vehicle: saline with Tween-80) was 115 % of control and 120 % of control, the T/C (endpoint: mean survival time, dose: 40.0 mg/kg/injection, schedule: Q01DX007 (ip), vehicle: saline) was 100 % of control and the T/C (endpoint: mean survival time, dose: 40.0 mg/kg/injection, schedule: Q01DX009 (ip), vehicle: saline) was 89 % of control. For the same compound, the T/C (endpoint: mean survival time, dose: 64.0 mg/kg/injection, schedule: Q04DX003 (ip), vehicle: saline with Tween-80) was 103 % of control, the T/C (endpoint: mean survival time, dose: 80.0 mg/kg/injection, schedule: Q01DX001 (ip), vehicle: saline with Tween-80) was 117 % of control and 91 % of control and the T/C (endpoint: mean survival time, dose: 160.0 mg/kg/injection, schedule: Q01DX001 (ip), vehicle: saline with Tween-80) was 102 % of control. The T/C (endpoint: median survival time, dose: 5.0 mg/kg/injection, schedule: Q01DX009 (ip), vehicle: saline) was 114 % of control and 105 % of control, the T/C (endpoint: median survival time, dose: 10.0 mg/kg/injection, schedule: Q01DX009 (ip), vehicle: saline) was 117 % of control and the T/C (endpoint: median survival time, dose: 20.0 mg/kg/injection, schedule: Q01DX009 (ip), vehicle: saline) was 117 % of control. For the same compound, the T/C (endpoint: median survival time, dose: 40.0 mg/kg/injection, schedule: Q01DX009 (ip), vehicle: saline) was 114 % of control and 117 % of control.
In the case of `[C-]#[O+].[C-]#[O+].[C-]#[O+].[C-]#[O+].[C-]#[O+].[I][Re]`, the T/C (endpoint: mean survival time, dose: 50.0 mg/kg/injection, schedule: Q04DX002 (ip), vehicle: other) is reported as 123 % of control.
With `C=CCN(CC=C)C(=O)OCC` the T/C [5] was 97 % of control, the T/C [8] was 97 % of control and the T/C [7] was 96 % of control. For the same compound, the T/C [9] was 95 % of control and the T/C [10] was 101 % of control.
In the case of `O=Cc1cc2c(c3ccccc13)CCCC2`, the T/C [5] is reported as 97 % of control, the T/C [7] is reported as 98 % of control and the T/C (endpoint: mean survival time, dose: 400.0 mg/kg/injection, schedule: Q01DX009 (ip), vehicle: saline with Tween-80) is reported as 98 % of control.
With `O=c1[nH]cnc2nc(SCc3ccc([N+](=O)[O-])cc3)[nH]c12` the T/C (endpoint: mean survival time, dose: 50.0 mg/kg/injection, schedule: Q01DX009 (ip), vehicle: Klucel (hydroxypropylcellulose) (HPC)) was 90 % of control, the T/C (endpoint: mean survival time, dose: 100.0 mg/kg/injection, schedule: Q01DX009 (ip), vehicle: Klucel (hydroxypropylcellulose) (HPC)) was 94 % of control and the T/C (endpoint: mean survival time, dose: 200.0 mg/kg/injection, schedule: Q01DX009 (ip), vehicle: Klucel (hydroxypropylcellulose) (HPC)) was 105 % of control.
In the case of `CN1C(=O)CC(c2ccc(NC(=O)N(CCCl)N=O)cc2)C1=O` (stereo unspecified), the T/C [1] is reported as 155 % of control and 160 % of control, the T/C [2] is reported as 183 % of control and 196 % of control and the T/C [3] is reported as 95 % of control.
With `COc1cc(Cl)ccc1NC(=O)Oc1c(Cl)cccc1Cl` the T/C (endpoint: mean survival time, dose: 50.0 mg/kg/injection, schedule: Q01DX009 (ip), vehicle: saline with Tween-80) was 104 % of control, the T/C [5] was 100 % of control and the T/C [7] was 100 % of control.
In the case of `COc1ccc(C(=O)c2cccc3c2-c2ccccc2C3(c2ccc(OC)c(C)c2)c2ccc(OC)c(C)c2)cc1C`, the T/C (endpoint: mean survival time, dose: 5.0 mg/kg/injection, schedule: Q01DX001 (ip), vehicle: other) is reported as 96 % of control, the T/C (endpoint: mean survival time, dose: 10.0 mg/kg/injection, schedule: Q01DX001 (ip), vehicle: other) is reported as 88 % of control and the T/C (endpoint: mean survival time, dose: 40.0 mg/kg/injection, schedule: Q01DX001 (ip), vehicle: other) is reported as 86 % of control. The T/C (endpoint: mean survival time, dose: 80.0 mg/kg/injection, schedule: Q01DX001 (ip), vehicle: other) was 91 % of control.
For `CCN(CCNc1ccc(C)c2sc3cc(Cl)ccc3c(=O)c12)CC(C)O` (stereo unspecified), the T/C (endpoint: mean survival time, dose: 50.0 mg/kg/injection, schedule: Q01DX001 (ip), vehicle: saline) was 94 % of control, the T/C (endpoint: mean survival time, dose: 100.0 mg/kg/injection, schedule: Q01DX001 (ip), vehicle: saline) was 88 % of control and the T/C [8] was 94 % of control. The T/C (endpoint: mean survival time, dose: 200.0 mg/kg/injection, schedule: Q01DX001 (ip), vehicle: saline) was 94 % of control, the T/C [9] was 94 % of control and the T/C (endpoint: mean survival time, dose: 400.0 mg/kg/injection, schedule: Q01DX001 (ip), vehicle: saline) was 96 % of control. The T/C [10] was 102 % of control.
For `c1ccc2nc3c4ccccc4c4ccccc4c3nc2c1`, the T/C (endpoint: mean survival time, dose: 100.0 mg/kg/injection, schedule: Q04DX002 (ip), vehicle: Klucel (hydroxypropylcellulose) (HPC)) was 97 % of control, the T/C (endpoint: mean survival time, dose: 200.0 mg/kg/injection, schedule: Q04DX002 (ip), vehicle: Klucel (hydroxypropylcellulose) (HPC)) was 97 % of control and the T/C (endpoint: mean survival time, dose: 400.0 mg/kg/injection, schedule: Q04DX002 (ip), vehicle: Klucel (hydroxypropylcellulose) (HPC)) was 97 % of control.
With `C[P+](CP(=O)(c1ccccc1)c1ccccc1)(c1ccccc1)c1ccccc1` the T/C (endpoint: mean survival time, dose: 25.0 mg/kg/injection, schedule: Q04DX002 (ip), vehicle: saline with Tween-80) was 107 % of control, the T/C (endpoint: mean survival time, dose: 50.0 mg/kg/injection, schedule: Q04DX002 (ip), vehicle: saline with Tween-80) was 92 % of control and the T/C (endpoint: mean survival time, dose: 100.0 mg/kg/injection, schedule: Q04DX002 (ip), vehicle: saline with Tween-80) was 96 % of control.
With `CCOC(=S)SCC(=O)O` the T/C [4] was 92 % of control and the T/C [6] was 96 % of control.
For `O=C(Nc1ccc(Cl)c(Cl)c1)Nc1ccc(Oc2ccc(Cl)cc2Cl)cc1S(=O)(=O)O`, the T/C (endpoint: mean survival time, dose: 100.0 mg/kg/injection, schedule: Q01DX001 (ip), vehicle: acetone) was 102 % of control, the T/C (endpoint: mean survival time, dose: 200.0 mg/kg/injection, schedule: Q01DX001 (ip), vehicle: acetone) was 91 % of control and the T/C (endpoint: mean survival time, dose: 400.0 mg/kg/injection, schedule: Q01DX001 (ip), vehicle: acetone) was 94 % of control.
